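Briefly, cells in 96-well plates were exposed to five compound concentrations for 48 h, and endpoints were estimated by linear interpolation. GI50 is the concentration that inhibits growth by half.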 The source made the active and inactive calls. Rule as the data show it: active = GI50 up to about 1.1 µM and inactive = higher.
Tests used:
Assay in all cases: NCI anticancer screen, dose series, 48 h
[1] = system: SN12C
[2] = system: OVCAR-8
[3] = system: CAKI-1
[4] = system: UO-31
[5] = system: OVCAR-3
[6] = system: LOX IMVI
[7] = system: HOP-62
[8] = system: KM12
[9] = system: A498
[10] = system: SK-MEL-5
[11] = system: TK-10
[12] = system: MOLT-4
[13] = system: OVCAR-5
[14] = system: BT-549
[15] = system: SF-268
[16] = system: UACC-257
[17] = system: RPMI-8226
[18] = system: HCC 2998
[19] = system: NCI-H23
[20] = system: ACHN

| Structure (SMILES) | GI50 [1] | GI50 [2] | GI50 [3] | GI50 [4] | GI50 [5] | GI50 [6] | GI50 [7] | GI50 [8] | GI50 [9] | GI50 [10] | GI50 [11] | GI50 [12] | GI50 [13] | GI50 [14] | GI50 [15] | GI50 [16] | GI50 [17] | GI50 [18] | GI50 [19] | GI50 [20] |
| --- | --- | --- | --- | --- | --- | --- | --- | --- | --- | --- | --- | --- | --- | --- | --- | --- | --- | --- | --- | --- |
| O=C1CN2CCN(CC2)CC(=O)Nc2ccc(cc2)S(=O)(=O)c2ccc(cc2)NC(=O)CN2CCN(CC2)CC(=O)Nc2ccc(cc2)S(=O)(=O)c2ccc(cc2)N1 | > 97.5 µM (inactive) | 38.8 µM (inactive) | > 47.8 µM (inactive) | > 92.5 µM (inactive) | 27.9 µM (inactive) | 11 µM (inactive) | 44.4 µM (inactive) | 32.2 µM (inactive) | > 100 µM (inactive) | 31.8 µM (inactive) | > 92.7 µM (inactive) | 6.81 µM (inactive) | 37.3 µM (inactive) | 31.5 µM (inactive) | 19 µM (inactive) | > 100 µM (inactive) | 10.1 µM (inactive) | > 61.9 µM (inactive) | 44 µM (inactive) | 66.4 µM (inactive) |
| CCCCCC(O)C(O)CCC[C@H](O)[C@H]1CC[C@H]([C@H]2CC[C@H]([C@H](O)CCCCCCCCCCCCC3=C[C@H](C)OC3=O)O2)O1 (stereo partly specified) | 3.87 µM (inactive) | 2.99 µM (inactive) | 5.07 µM (inactive) | 1.85 µM (inactive) | 2.47 µM (inactive) | 1.21 µM (inactive) | 5.2 µM (inactive) | 2.21 µM (inactive) | 2.65 µM (inactive) | 1.22 µM (inactive) | 2.86 µM (inactive) | 2.32 µM (inactive) | 15.7 µM (inactive) | 8.93 µM (inactive) | 1.83 µM (inactive) | 0.597 µM (active) | 1.28 µM (inactive) | 11 µM (inactive) | 1.37 µM (inactive) | 1.59 µM (inactive) |
| CCC(C)NC(=S)N/N=C(\C)c1nc2cccnc2[nH]1 (stereo unspecified) | 21.6 µM (inactive) | 4 µM (inactive) | 4.07 µM (inactive) | 2.32 µM (inactive) | 3.25 µM (inactive) | 10.9 µM (inactive) | 7.78 µM (inactive) | 15.9 µM (inactive) | 57.3 µM (inactive) | 4.72 µM (inactive) | 12.3 µM (inactive) | 3.6 µM (inactive) | 13.4 µM (inactive) | 13.5 µM (inactive) | 8.36 µM (inactive) | 5.79 µM (inactive) | 21.6 µM (inactive) | 13.4 µM (inactive) | 41.6 µM (inactive) | 9.57 µM (inactive) |
| COc1ccc(OC)c(N2C(=O)CSC2c2cc(OC)c(OC)c(OC)c2)c1 (stereo unspecified) | > 100 µM (inactive) | > 100 µM (inactive) | > 100 µM (inactive) | > 100 µM (inactive) | > 100 µM (inactive) | > 100 µM (inactive) |  | 81.7 µM (inactive) | > 100 µM (inactive) | 99.8 µM (inactive) | > 100 µM (inactive) | > 100 µM (inactive) | > 100 µM (inactive) | 48.4 µM (inactive) | > 100 µM (inactive) | 89.5 µM (inactive) | > 100 µM (inactive) | > 100 µM (inactive) | > 100 µM (inactive) | > 100 µM (inactive) |
| O=C1C=CC2CCC1C2 (stereo unspecified) | 30.4 µM (inactive) | 28.7 µM (inactive) | 27.5 µM (inactive) | 31.2 µM (inactive) | 43.1 µM (inactive) | 29.4 µM (inactive) | 43.1 µM (inactive) | 32.4 µM (inactive) | 90.2 µM (inactive) | 28.6 µM (inactive) | 66.1 µM (inactive) | 26.4 µM (inactive) | 26.2 µM (inactive) | 21.4 µM (inactive) | 20.2 µM (inactive) | 46.8 µM (inactive) | 34 µM (inactive) | 30.1 µM (inactive) | 20.6 µM (inactive) | 40.3 µM (inactive) |
| O=[N+]([O-])c1ccc(/N=N\c2c(O)ccc3ccccc23)c([N+](=O)[O-])c1 | > 100 µM (inactive) | > 100 µM (inactive) | > 100 µM (inactive) | > 100 µM (inactive) | > 100 µM (inactive) | > 100 µM (inactive) | > 100 µM (inactive) | > 100 µM (inactive) | > 100 µM (inactive) | > 100 µM (inactive) | > 90.4 µM (inactive) | 70.6 µM (inactive) | > 100 µM (inactive) | > 100 µM (inactive) | > 100 µM (inactive) | > 100 µM (inactive) | > 83.4 µM (inactive) | > 100 µM (inactive) | > 100 µM (inactive) | > 100 µM (inactive) |
| O=C(Cc1nc2ccccc2[nH]c1=O)c1c[nH]c2ccccc12 | 13.8 µM (inactive) | 14.1 µM (inactive) | 20.2 µM (inactive) | 11.9 µM (inactive) | 14 µM (inactive) | 13.7 µM (inactive) | 21 µM (inactive) | 5.77 µM (inactive) | 14.7 µM (inactive) | 10.8 µM (inactive) | 7.57 µM (inactive) | 6.01 µM (inactive) | 23.6 µM (inactive) | 12.2 µM (inactive) | > 100 µM (inactive) | 23.8 µM (inactive) | 6.92 µM (inactive) | 13.3 µM (inactive) | 20.4 µM (inactive) | 10.5 µM (inactive) |
| COc1ccc(C(=O)c2ccc(-n3cc(/C=C/[N+](=O)[O-])c4ccccc43)cc2)cc1 | 16.8 µM (inactive) | 20.3 µM (inactive) | 19.1 µM (inactive) | 19.5 µM (inactive) | 13.6 µM (inactive) | 6.55 µM (inactive) | 16.1 µM (inactive) | 20.7 µM (inactive) | 22.4 µM (inactive) | 21.6 µM (inactive) | 6.3 µM (inactive) | 4.81 µM (inactive) | > 76.4 µM (inactive) | 15.5 µM (inactive) | 18 µM (inactive) | 10.2 µM (inactive) | 3.08 µM (inactive) | 20.9 µM (inactive) | 20.1 µM (inactive) | 20.1 µM (inactive) |
| COc1cc2c(cc1OCCCC(=O)Nc1cc(C(=O)Nc3cc(C(=O)Nc4cc(C(=O)NCCCN(C)C)n(C)c4)n(C)c3)n(C)c1)N=C[C@@H]1CCCN1C2=O | 1.2 µM (inactive) | 1.79 µM (inactive) | 0.587 µM (active) | 1.66 µM (inactive) | 2.02 µM (inactive) | 0.933 µM (active) | 3.56 µM (inactive) | 16.3 µM (inactive) | 13.2 µM (inactive) | 2.24 µM (inactive) | 1.87 µM (inactive) | 3.2 µM (inactive) | 3.16 µM (inactive) | 1.96 µM (inactive) | 1.63 µM (inactive) | 1.97 µM (inactive) | 1.67 µM (inactive) | 14.2 µM (inactive) | 1.77 µM (inactive) | 1.61 µM (inactive) |
| CC(C)=CCC[C@@H](C)c1c2ncc[nH]c-2c(C)c(=O)c1O | 28.8 µM (inactive) | 10 µM (inactive) | 35.1 µM (inactive) | 6.92 µM (inactive) | 27.4 µM (inactive) | 25.1 µM (inactive) | 19.2 µM (inactive) | 10.6 µM (inactive) | 30 µM (inactive) | 11.7 µM (inactive) | 31.1 µM (inactive) | 10.4 µM (inactive) | 45.6 µM (inactive) | 30.8 µM (inactive) | 15.2 µM (inactive) | 31.9 µM (inactive) | 20 µM (inactive) | 31.9 µM (inactive) | 22.4 µM (inactive) | 12.4 µM (inactive) |
| COc1ccc(COCC[C@H](C)OC2OC(CO)C(O)C(O)C2O)cc1 (stereo partly specified) | > 100 µM (inactive) | > 100 µM (inactive) | > 100 µM (inactive) | > 100 µM (inactive) | > 100 µM (inactive) | > 100 µM (inactive) | > 100 µM (inactive) | > 100 µM (inactive) | > 100 µM (inactive) | > 100 µM (inactive) | > 100 µM (inactive) | > 100 µM (inactive) | > 100 µM (inactive) | > 100 µM (inactive) | > 100 µM (inactive) | > 100 µM (inactive) | > 100 µM (inactive) | > 100 µM (inactive) | > 100 µM (inactive) | > 100 µM (inactive) |
| CSc1c(C#N)c(O)nc(N)c1C(=O)Nc1ccc(C)cc1 | > 100 µM (inactive) | > 100 µM (inactive) | 32.2 µM (inactive) | 31.4 µM (inactive) | > 100 µM (inactive) | > 100 µM (inactive) |  | > 100 µM (inactive) | 38.9 µM (inactive) | > 100 µM (inactive) | > 100 µM (inactive) | > 100 µM (inactive) | > 100 µM (inactive) | > 100 µM (inactive) | > 100 µM (inactive) | > 100 µM (inactive) | > 100 µM (inactive) | > 100 µM (inactive) | 90.6 µM (inactive) |  |
| COc1cc(C(=O)/C=C/c2ccc(OCCSCCCCCCCCCCSCCOc3ccc(/C=C/C(=O)c4cc(OC)c(OC)c(OC)c4)cc3)cc2)cc(OC)c1OC | > 100 µM (inactive) | > 100 µM (inactive) | > 100 µM (inactive) | > 100 µM (inactive) | > 100 µM (inactive) | > 100 µM (inactive) | > 100 µM (inactive) | > 100 µM (inactive) | > 100 µM (inactive) | > 100 µM (inactive) | > 100 µM (inactive) | > 100 µM (inactive) | > 100 µM (inactive) | > 100 µM (inactive) | > 100 µM (inactive) |  | > 100 µM (inactive) | > 100 µM (inactive) | > 100 µM (inactive) | > 100 µM (inactive) |
| N#C/C(=C\c1c[nH]c2ccccc12)C(=O)c1ccc(O)c(O)c1 | 23.1 µM (inactive) | 38.5 µM (inactive) | 41.5 µM (inactive) | 6.85 µM (inactive) | 3.33 µM (inactive) | 23.7 µM (inactive) | 19.2 µM (inactive) | 27.7 µM (inactive) | 41.6 µM (inactive) | 35.5 µM (inactive) | 51.2 µM (inactive) | 12.4 µM (inactive) | 33 µM (inactive) | 11.1 µM (inactive) | 39.7 µM (inactive) | 50.7 µM (inactive) | 15.4 µM (inactive) | 32.5 µM (inactive) | 45.8 µM (inactive) | 27.8 µM (inactive) |

From ChEMBL document CHEMBL1201862, “PubChem BioAssay data set” (2004)
